Test in all cases: relative viability (nuclei count vs DMSO), 5 days (fraction); higher = more cells survive
Compound in the assay “Ponatinib + Lapatinib”: Cc1ccc(C(=O)Nc2ccc(CN3CCN(C)CC3)c(C(F)(F)F)c2)cc1C#Cc1cnc2cccnn12 [Ponatinib] + CS(=O)(=O)CCNCc1ccc(-c2ccc3ncnc(Nc4ccc(OCc5cccc(F)c5)c(Cl)c4)c3c2)o1 [Lapatinib] (partner 2 µM)
The procedure, abridged:
(§1)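 Relative viability equals treated-well nuclei counts divided by vehicle-well nuclei counts. Counts came from 4× images of lung cancer cell lines grown in 1536-well plates for 5 days after pin-tool dosing on the day after seeding. Dosing used one drug alone or a fixed anchor-drug dose plus five library-drug doses (not always all listed) in √10 steps, and values are medians of duplicate plates.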

Compound in the assay “Pazopanib + Palbociclib”: Cc1ccc(Nc2nccc(N(C)c3ccc4c(C)n(C)nc4c3)n2)cc1S(N)(=O)=O [Pazopanib] + CC(=O)c1c(C)c2cnc(Nc3ccc(N4CCNCC4)cn3)nc2n(C2CCCC2)c1=O [Palbociclib] (partner 0.5 µM)
The procedure, abridged: as §1

Compound in the assay “Pazopanib + Luminespib”: Cc1ccc(Nc2nccc(N(C)c3ccc4c(C)n(C)nc4c3)n2)cc1S(N)(=O)=O [Pazopanib] + CCNC(=O)c1noc(-c2cc(C(C)C)c(O)cc2O)c1-c1ccc(CN2CCOCC2)cc1 [Luminespib] (partner 0.01 µM)
In short, it runs like this: as §1

Compound in the assay “Pazopanib + Phenformin”: Cc1ccc(Nc2nccc(N(C)c3ccc4c(C)n(C)nc4c3)n2)cc1S(N)(=O)=O [Pazopanib] + N=C(N)NC(=N)NCCc1ccccc1 [Phenformin] (partner 250 µM)
In short, it runs like this: as §1

For the cell line SK-MES-1, the relative viability in the assay with Ponatinib + Lapatinib (first compound 0.002 µM) is 0.472; with Ponatinib + Lapatinib (first compound 0.006325 µM), 0.531; with Ponatinib + Lapatinib (first compound 0.06325 µM) it was 0.749; with Ponatinib + Lapatinib (first compound 0.2 µM), 0.59; with Pazopanib + Palbociclib (first compound 0.01 µM), 0.334; in the assay with Pazopanib + Palbociclib (first compound 0.03162 µM) it was 0.352. Also, the relative viability in the assay with Pazopanib + Palbociclib (first compound 0.1 µM) was 0.322; in the assay with Pazopanib + Palbociclib (first compound 0.3162 µM) it was 0.36; with Pazopanib + Palbociclib (first compound 1 µM), 0.304; in the assay with Pazopanib + Luminespib (first compound 0.01 µM) it was 0.846; in the assay with Pazopanib + Luminespib (first compound 0.03162 µM), 0.79; with Pazopanib + Luminespib (first compound 0.1 µM), 0.746. The relative viability turned out to be 0.913 with Pazopanib + Luminespib (first compound 0.3162 µM); 0.75 with Pazopanib + Luminespib (first compound 1 µM); 0.734 with Pazopanib + Phenformin (first compound 0.01 µM); 0.661 in the assay with Pazopanib + Phenformin (first compound 0.03162 µM); 0.668 with Pazopanib + Phenformin (first compound 0.1 µM); 0.669 in the assay with Pazopanib + Phenformin (first compound 0.3162 µM). For the same cell line, the relative viability with Pazopanib + Phenformin (first compound 1 µM) turned out to be 0.688.
For PC-14, the relative viability in the assay with Ponatinib + Lapatinib (first compound 0.002 µM) is 0.313; in the assay with Ponatinib + Lapatinib (first compound 0.006325 µM), 0.363; with Ponatinib + Lapatinib (first compound 0.06325 µM) it was 0.384; with Ponatinib + Lapatinib (first compound 0.2 µM) it was 0.386; in the assay with Pazopanib + Palbociclib (first compound 0.01 µM) it was 0.561; in the assay with Pazopanib + Palbociclib (first compound 0.03162 µM), 0.585. The relative viability is 0.568 in the assay with Pazopanib + Palbociclib (first compound 0.1 µM); 0.719 with Pazopanib + Palbociclib (first compound 0.3162 µM); 0.6 with Pazopanib + Palbociclib (first compound 1 µM); 0.155 with Pazopanib + Luminespib (first compound 0.01 µM); 0.177 in the assay with Pazopanib + Luminespib (first compound 0.03162 µM); 0.173 in the assay with Pazopanib + Luminespib (first compound 0.1 µM). Moreover, the relative viability with Pazopanib + Luminespib (first compound 0.3162 µM) came to 0.177; with Pazopanib + Luminespib (first compound 1 µM) it was 0.142; in the assay with Pazopanib + Phenformin (first compound 0.01 µM), 0.747; with Pazopanib + Phenformin (first compound 0.03162 µM), 0.692; with Pazopanib + Phenformin (first compound 0.1 µM), 0.607; with Pazopanib + Phenformin (first compound 0.3162 µM) it was 0.823. Moreover, in the assay with Pazopanib + Phenformin (first compound 1 µM), the relative viability came to 0.677.
With CAL-12T, the relative viability is 0.702 with Ponatinib + Lapatinib (first compound 0.002 µM); 0.714 in the assay with Ponatinib + Lapatinib (first compound 0.006325 µM); 1 with Ponatinib + Lapatinib (first compound 0.06325 µM); 0.698 with Ponatinib + Lapatinib (first compound 0.2 µM); 0.487 with Pazopanib + Palbociclib (first compound 0.01 µM); 0.687 with Pazopanib + Palbociclib (first compound 0.03162 µM). Further, the relative viability with Pazopanib + Palbociclib (first compound 0.1 µM) amounted to 0.348; in the assay with Pazopanib + Palbociclib (first compound 0.3162 µM), 0.486; with Pazopanib + Palbociclib (first compound 1 µM), 0.577; with Pazopanib + Luminespib (first compound 0.01 µM), 0.434; with Pazopanib + Luminespib (first compound 0.03162 µM) it was 0.321; with Pazopanib + Luminespib (first compound 0.1 µM), 0.974. Besides, the relative viability in the assay with Pazopanib + Luminespib (first compound 0.3162 µM) worked out at 0.426; with Pazopanib + Luminespib (first compound 1 µM) it was 0.783; with Pazopanib + Phenformin (first compound 0.01 µM) it was 0.595; in the assay with Pazopanib + Phenformin (first compound 0.03162 µM), 0.616; with Pazopanib + Phenformin (first compound 0.1 µM) it was 0.544; in the assay with Pazopanib + Phenformin (first compound 0.3162 µM), 0.664. In addition, the relative viability with Pazopanib + Phenformin (first compound 1 µM) was determined as 0.581.

(Values after the supplement of paper PMC10307832.)
